According to ChEMBL document CHEMBL1201862, “PubChem BioAssay data set” (2004):
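Values below derive from 48-hour exposures of cells grown in 96-well plates, with endpoints linearly interpolated between the two concentrations bracketing the appropriate inhibition level. At the GI50, growth is halved.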 Activity calls are given as the source filed them. Rule as the data show it: active = GI50 up to about 1.1 µM and inactive = higher.

Experiments:
Assay in all cases: NCI-60 cell line screen, 48 h
SW-620 = test system: SW-620
SF-539 = test system: SF-539
SF-295 = test system: SF-295
OVCAR-4 = test system: OVCAR-4
HCT-15 = test system: HCT-15
LOX IMVI = test system: LOX IMVI
COLO 205 = test system: COLO 205
OVCAR-8 = test system: OVCAR-8
M14 = test system: M14
K562 = test system: K562
SK-OV-3 = test system: SK-OV-3
HCC 2998 = test system: HCC 2998
HL-60 = test system: HL-60
SF-268 = test system: SF-268
HOP-62 = test system: HOP-62
ACHN = test system: ACHN
UACC-62 = test system: UACC-62
RPMI-8226 = test system: RPMI-8226

Structure (SMILES) | GI50 (SW-620) | GI50 (SF-539) | GI50 (SF-295) | GI50 (OVCAR-4) | GI50 (HCT-15) | GI50 (LOX IMVI) | GI50 (COLO 205) | GI50 (OVCAR-8) | GI50 (M14) | GI50 (K562) | GI50 (SK-OV-3) | GI50 (HCC 2998) | GI50 (HL-60) | GI50 (SF-268) | GI50 (HOP-62) | GI50 (ACHN) | GI50 (UACC-62) | GI50 (RPMI-8226)
CCOC(=O)c1c(-c2ccc(OC)cc2)c(C#N)c(=S)n(C2OC(CO)C(O)C(O)C2O)c1C (stereo not drawn) | > 100 µM (inactive) | > 100 µM (inactive) | > 100 µM (inactive) | > 100 µM (inactive) | > 100 µM | > 100 µM (inactive) | > 100 µM (inactive) | > 100 µM (inactive) | > 100 µM (inactive) | > 100 µM (inactive) | > 100 µM (inactive) | > 100 µM (inactive) | > 100 µM (inactive) | > 100 µM (inactive) | > 100 µM (inactive) | – | – | –
CCOC(=O)Cc1nc2ccccc2s1 | 19.2 µM (inactive) | 18.4 µM (inactive) | 17.7 µM (inactive) | > 10 µM (inactive) | – | 17.8 µM (inactive) | 38.6 µM (inactive) | 17.5 µM (inactive) | 16.6 µM (inactive) | 25.4 µM (inactive) | 50.9 µM (inactive) | 88.1 µM (inactive) | 18.2 µM (inactive) | 18.6 µM (inactive) | 22.9 µM (inactive) | 17.1 µM (inactive) | 17.9 µM (inactive) | –
O=c1[nH]cc(C(F)(C(F)(F)F)C(F)(F)F)c(=O)[nH]1 | > 100 µM (inactive) | > 100 µM (inactive) | > 100 µM (inactive) | > 100 µM (inactive) | > 100 µM | > 100 µM (inactive) | > 100 µM (inactive) | > 100 µM (inactive) | > 100 µM (inactive) | > 100 µM (inactive) | > 100 µM (inactive) | – | > 100 µM (inactive) | > 100 µM (inactive) | > 100 µM (inactive) | > 100 µM (inactive) | > 100 µM (inactive) | > 100 µM (inactive)
O=c1[nH]c(-c2ccccc2)nc2cc(Cl)ccc12 | > 100 µM (inactive) | > 100 µM (inactive) | > 100 µM (inactive) | > 100 µM (inactive) | > 100 µM | – | – | > 100 µM (inactive) | > 100 µM (inactive) | > 100 µM (inactive) | > 100 µM (inactive) | > 100 µM (inactive) | > 100 µM (inactive) | – | > 100 µM (inactive) | > 100 µM (inactive) | > 100 µM (inactive) | > 100 µM (inactive)
C[C@@H]1C(=O)CC2C(C)(C)CCC[C@]2(C)[C@@]12CC[C@]1(C=COC1)O2 (stereo partly drawn) | 50.8 µM (inactive) | 39.5 µM (inactive) | 36.6 µM (inactive) | 43.8 µM (inactive) | 30.5 µM | 33.4 µM (inactive) | 32.3 µM (inactive) | 27.9 µM (inactive) | 29.4 µM (inactive) | 24.3 µM (inactive) | 27.5 µM (inactive) | 38.1 µM (inactive) | 18.7 µM (inactive) | 64.7 µM (inactive) | 50.8 µM (inactive) | 32.5 µM (inactive) | 35.4 µM (inactive) | –
COC(=O)c1c[nH]cc1CCc1c[nH]cc1C(=O)OC | > 100 µM (inactive) | > 100 µM (inactive) | > 100 µM (inactive) | > 100 µM (inactive) | > 100 µM | > 100 µM (inactive) | > 100 µM (inactive) | > 100 µM (inactive) | – | > 100 µM (inactive) | > 100 µM (inactive) | > 100 µM (inactive) | > 100 µM (inactive) | > 100 µM (inactive) | > 100 µM (inactive) | > 100 µM (inactive) | – | –
Cn1nc(-c2ccccc2)c(C(=O)/C=C/c2ccc(F)cc2)c(N2CCCCC2)c1=O | 5.06 µM (inactive) | 4.54 µM (inactive) | – | – | 5.06 µM | 3.5 µM (inactive) | 4.12 µM (inactive) | 5.81 µM (inactive) | 5.93 µM (inactive) | 3.39 µM (inactive) | 15 µM (inactive) | – | 0.759 µM (active) | 6.35 µM (inactive) | – | 12.7 µM (inactive) | 6.27 µM (inactive) | 2.48 µM (inactive)
CC(C)c1cc(OCC(O)CO)cc(C(C)C)c1 (stereo not drawn) | > 100 µM (inactive) | > 100 µM (inactive) | > 100 µM (inactive) | > 100 µM (inactive) | > 100 µM | > 100 µM (inactive) | > 100 µM (inactive) | > 100 µM (inactive) | > 100 µM (inactive) | > 100 µM (inactive) | > 100 µM (inactive) | > 100 µM (inactive) | > 100 µM (inactive) | > 100 µM (inactive) | > 100 µM (inactive) | > 100 µM (inactive) | > 100 µM (inactive) | –
CC(Oc1ccc2cc(C(=O)c3ccccc3)c(=O)oc2c1)C(=O)O (stereo not drawn) | > 100 µM (inactive) | > 100 µM (inactive) | > 100 µM (inactive) | > 100 µM (inactive) | – | > 100 µM (inactive) | > 100 µM (inactive) | > 100 µM (inactive) | > 100 µM (inactive) | > 100 µM (inactive) | > 100 µM (inactive) | > 100 µM (inactive) | > 100 µM (inactive) | > 100 µM (inactive) | > 100 µM (inactive) | > 100 µM (inactive) | > 100 µM (inactive) | –
CC1=C(C(=O)Nc2ccc([N+](=O)[O-])cc2)C(c2ccc3c(c2)OCO3)C(C(=O)Nc2ccc([N+](=O)[O-])cc2)=C(C)N1 | 51.9 µM (inactive) | 27.7 µM (inactive) | 8.34 µM (inactive) | 10.6 µM (inactive) | 8.09 µM | – | 4.13 µM (inactive) | 3.16 µM (inactive) | 6.78 µM (inactive) | 4.15 µM (inactive) | > 100 µM (inactive) | 7.05 µM (inactive) | – | > 100 µM (inactive) | 37.6 µM (inactive) | 10.1 µM (inactive) | 5.21 µM (inactive) | 5.04 µM (inactive)
CCOC(=N)CC(=O)Nc1ccccc1CC | > 100 µM (inactive) | > 100 µM (inactive) | > 100 µM (inactive) | > 100 µM (inactive) | > 100 µM | > 100 µM (inactive) | > 100 µM (inactive) | > 100 µM (inactive) | > 100 µM (inactive) | > 100 µM (inactive) | > 100 µM (inactive) | 98.9 µM (inactive) | > 100 µM (inactive) | > 100 µM (inactive) | > 100 µM (inactive) | > 100 µM (inactive) | > 100 µM (inactive) | –
NS(=O)(=O)c1cc2c(cc1Cl)NC(C(=O)NNC(=O)c1ccncc1)=NS2(=O)=O | > 100 µM (inactive) | > 100 µM (inactive) | > 100 µM (inactive) | > 100 µM (inactive) | > 100 µM | > 100 µM (inactive) | > 100 µM (inactive) | > 100 µM (inactive) | > 100 µM (inactive) | – | > 100 µM (inactive) | > 100 µM (inactive) | > 100 µM (inactive) | > 100 µM (inactive) | > 100 µM (inactive) | > 100 µM (inactive) | > 100 µM (inactive) | –
CC(C)NCC(O)COC(=O)c1cccs1 (stereo not drawn) | > 100 µM (inactive) | – | > 10 µM (inactive) | > 100 µM (inactive) | > 100 µM | > 100 µM (inactive) | > 100 µM (inactive) | > 100 µM (inactive) | > 100 µM (inactive) | > 100 µM (inactive) | > 100 µM (inactive) | > 100 µM (inactive) | > 100 µM (inactive) | > 100 µM (inactive) | > 100 µM (inactive) | > 100 µM (inactive) | > 100 µM (inactive) | > 100 µM (inactive)
